Legend:
Per1 [1] = assay: Per1 mRNA levels in U2OS cells by qPCR; format: cell-based
Method: (§1) Total RNA was extracted using the microRNeasy column method (Qiagen, Hilden, Germany). Quality and quantity of RNA were measured using an Agilent Bioanalyzer and a Nanodrop1000 (Thermo Fisher Scientific, Waltham, MA USA), respectively.
(§2) RNA samples were prepared as described for microarray hybridisation. cDNA was synthesized with a qScript cDNA synthesis kit (Quanta Biosciences, Gaithersburg, MD), and quantitative PCR (qPCR) was conducted with Sybr green I and an SDS7700 thermal cycler (Applied Biosystems, Foster City, CA). Relative quantification of transcript levels was done as described previously (Peirson et al., Nucleic Acids Res. 2003 Jul. 15; 31(14):e73.). The geometric mean of a minimum of three housekeeping genes was used for normalization (Gapdh, ActB, GusB and Rps9 for example).
Cells from the U2OS (HTB-96) line were obtained, tested and identified. The cells were cultured in T-75 flasks, in Dulbecco's modified Eagle medium (DMEM) supplemented with 10% foetal bovine serum (FBS) and 1% penicillin-streptomycin (P/S) at 37° C. in a humidified atmosphere at 5% CO2. The cells were subcultured every 2 to 4 days in a 1:2 to 1:6 ratio, in accordance with the ATCC recommendations. The cells were counted using a haemocytometer, and their viability in a culture was maintained at above 95%, measured with a Presto Blue exclusion assay according to the manufacturer's specifications. Cells were transfected with siRNAs (typically at 50 nM concentrations, sequences as previously listed), the CRE::Luc (pGL4.29[luc2P/CRE/Hygro] Vector, encoding Luc2P […] under the control of a strong cAMP response element (CRE) promoter containing 3 CRE elements within its sequence; Promega) reporter vector or cAMP-GLOSensor plasmid (Promega) as per manufacturer's instructions using either Lipofectamine RNAimax (Invitrogen) or Lipofectamine3000 (Invitrogen).

[2] = system: Per2::Luc SCN slice cultures; assay: Per2::Luc SCN slice culture; format: cell-based, mice; conditions: isolated Per2::Luc SCN slice cultures
Text: (§3) SCN Tissue Collection: Animals were housed under a 12:12 LD cycle for 2 weeks with food and water ad libitum. Animals then received either a drug injection with a alteration in the light dark cycle as described in the experiment and at set points following drug administration were sacrificed by cervical dislocation. Sham-treated mice not given a light pulse were dissected at each time point. Brains were removed and placed into a brain matrix (Kent Scientific, Torrington CT, USA). Per2::Luc transgenic animals (as reported in Yoo et al, Proc Natl Acad Sci USA. 2004 Apr. 13; 101(15):5339-46) were obtained from Prof Joseph Takahashi, Northwestern University.
For SCN slice culture: The brain was gently cut into a cube preserving the integrity of the SCN and cut into […] slices in ice-cold oxygenated Hanks Balanced Salt Solution containing 100 nM MK801 (Sigma-Aldrich). The SCN was microdissected and transferred to membrane filter (Millicell Cell Culture Insert, 30 mm, hydrophilic PTFE, 0.4 μm, Millipore) and cultured in 300 uL DMEM prepared as detailed in the Per2::Luc Assay.

SCN electrical activity = assay: In vivo recording from SCN electrode implanted animals; conditions: intraperitoneal injection, 5 mg/kg
Per1 [3] = assay: Per1 mRNA within the SCN after intraperitoneal injection; format: in vivo, mice; conditions: 4 h after intraperitoneal injection
Text: as §3, with “University. […]” for “University.”
as §1
as §2, with “The geometric mean of a minimum of three housekeeping genes was used for normalization (Gapdh, ActB, GusB and Rps9 for example).” left out

Per2::Luc U2OS cells = assay: Per2::Luc cell based circadian assay; conditions: Per2::Luc U2OS cells, dose response
Method: U2OS cells stably transfected with a Per2::Luc reporter were cultured in DMEM supplemented with 10% FBS. For siRNA- and drug-based experiments, cells were seeded at 5,000 per well into white 384 well plates and transfected with 20 nM siRNA the next day. 2 days later, the cells were synchronized with 100 nM dexamethasone and the medium was replaced with phenol-red free DMEM supplemented with B-27 and 100 µM luciferin potassium salt, requisite drugs formulated in DMSO as a 1000× stock was added, and then sealed. Per2::Luc rhythms were recorded from a BMG Labtech Fluostar Omega plate reader maintained at 36° C. and readings taken from each well every hour. Data were then analysed using either Multicycle or Brass rhythm analysis software.
Period2::Luciferase (Per2::Luc) stable U2OS transfects were cultured, as described above. A Greiner Bio-One 384 Well Plate (Polystyrene, F-bottom), was then seeded at 6000 cells per 50 μl well. Following a 24 hour period, the cells were treated with 0.1% dexamethasone, a glucocorticoid hormone analogue known to reset intracellular circadian rhythms, for 1 hour. Subsequently, the dexamethasone-containing medium was removed, the cells were washed with PBS and luciferin and test drug containing medium was added. The cells were then assayed for luminescence over a period of 96 hours in the BMG FLUOstar OPTIMA Microplate Reader to observe the periodicity and amplitude of the luminescence values.

SMILES: Nc1nc(-c2ccccc2)c2c(n1)-c1cc(OCCN3CCOCC3)ccc1C2=O [JNJ40255293, 2-amino-8-[2-(4-morpholinyl)ethoxy]-4-phenyl-5H-indeno[1,2-d]pyrimidin-5-one]
- Per1 transcription (Per1 [1]; 4 h post-drug treatment): significantly increased
- Per1 mRNA (Per1 [1]; U2OS cell cultures, 10 uM): Robust increases
- Per1 mRNA levels (Per1 [1]; U2OS cells, 30 uM): elevated
- Per1 mRNA levels / expression (Per1 [1]; U2OS cells, qPCR, concentration not given): induce the expression of Per1 and Per2
- period length [2]: increased period length
- phase of SCN electrical activity (SCN electrical activity): marked phase shift
- Per1 mRNA levels within the SCN (Per1 [3]): increase
- circadian period length (Per2::Luc U2OS cells): increased circadian period length in a dose dependent manner

Reference: US11931374B2, “Adenosine receptor modulators for the treatment of circadian rhythm disorders” (OXFORD UNIVERSITY INNOVATION LIMITED, priority 2016, dated 2024)
